Laboratory results reported in patent publication US10010547B2 (CASCADIAN THERAPEUTICS, INC., priority 2014, dated 2018).
Counter-ions that a name gives are not always drawn. Like-named read-outs stand apart in the source and are kept apart here.

Tests used:
[1] = tested on: MIA PaCa-2 cells; test: Gemcitabine Combination Cell Assay (Cell Titer Glo); format: cell-based; conditions: for 10xLS: approximate concentration of Chk1 inhibitor that results in a 10-fold reduction in the IC50 of gemcitabine alone; for 2xLS: approximate concentration of Chk1 inhibitor that results in a two-fold reduction in the IC50 of gemcitabine alone
Summary of the method: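 MIA PaCa-2 cells were treated 72 h with half-log dilutions of Chk1 inhibitor (top 3000 nM) and gemcitabine (top 100 nM), alone and in full matrix; viability by CellTiter-Glo luminescence. IC50s from four-parameter fit; Chk1 inhibitor concentrations giving two- and ten-fold lowering of gemcitabine IC50 were estimated.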

[2] = target: Chk-1 kinase (Homo sapiens (Human), UniProt O14757); test: Chk-1 Kinase Inhibiting Activity (33P-ATP filter assay, CHKtide substrate); format: biochemical; conditions: against Chk-1 kinase; read-out: IC50
Summary of the method: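 Full-length N-terminal GST-tagged human Chk-1 from insect cells, 0.5 nM final, with 20 μM peptide substrate and 33P-ATP in HEPES pH 7.5 buffer with 1% DMSO. Reaction ran 120 minutes at room temperature; incorporated radioactivity captured on P81 filters and counted for IC50.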

[3] = Homo sapiens, Chk1 inhibitor alone, MIA PaCa-2 cells, 72 h, read-out: Chk1 IC50
[4] = Homo sapiens, MIA PaCa-2, 72 h, read-out: Chk1 IC50 (nM)

Sequence of Chk-1 kinase (O14757 whole entry): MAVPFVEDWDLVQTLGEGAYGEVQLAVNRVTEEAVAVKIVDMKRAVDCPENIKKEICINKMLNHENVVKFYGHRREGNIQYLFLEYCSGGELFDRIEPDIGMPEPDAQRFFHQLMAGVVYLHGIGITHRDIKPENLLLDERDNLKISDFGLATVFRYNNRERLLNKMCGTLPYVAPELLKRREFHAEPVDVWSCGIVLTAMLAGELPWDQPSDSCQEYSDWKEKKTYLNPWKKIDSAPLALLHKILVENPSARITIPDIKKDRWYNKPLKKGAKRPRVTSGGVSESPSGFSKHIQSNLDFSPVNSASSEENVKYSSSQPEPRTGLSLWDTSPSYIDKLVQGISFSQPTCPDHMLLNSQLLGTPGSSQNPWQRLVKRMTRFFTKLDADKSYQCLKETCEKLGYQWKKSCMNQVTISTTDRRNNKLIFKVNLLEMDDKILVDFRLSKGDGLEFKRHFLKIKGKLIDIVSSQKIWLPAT

| Structure (SMILES) | IC50 [1, 3] | 10xLS ([1]; MIA PaCa-2 cells, 72 h) | 2xLS ([1]; MIA PaCa-2 cells, 72 h) | IC50 [2] | IC50 [1, 4] | IC50 ([1]; Chk1 inhibitor alone, MIA PaCa-2 cells, 72 h, read-out: Chk1 IC50) |
| --- | --- | --- | --- | --- | --- | --- |
| COc1cc(CN2CCCC2)ccc1-c1cc(Nc2cnc(C#N)cn2)n[nH]1 [Example 101, 5-[[5-[2-methoxy-4-(pyrrolidin-1-ylmethyl)phenyl]-1H-pyrazol-3-yl]amino]pyrazine-2-carbonitrile] | 199 nM | <100 nM | 3 nM | 0.055 nM |  |  |
| COc1cc(CN2CCOCC2)ccc1-c1cc(Nc2cnc(C#N)cn2)n[nH]1 [Example 102, 5-[[5-[2-methoxy-4-(morpholinomethyl)phenyl]-1H-pyrazol-3-yl]amino]pyrazine-2-carbonitrile] | 957 nM | 300 nM | 10 nM | 0.16 nM |  |  |
| COc1cc(OC[C@H]2CCCN2C)ccc1-c1cc(Nc2cnc(C#N)cn2)n[nH]1 [Example 103, 5-[[5-[2-methoxy-4-[[(2R)-1-methylpyrrolidin-2-yl]methoxy]phenyl]-1H-pyrazol-3-yl]amino]pyrazine-2-carbonitrile hydrochloride] |  | 300 nM | 3 nM | 0.109 nM | 184 nM |  |
| COc1cc(OC[C@@H]2CCCN2C)ccc1-c1cc(Nc2cnc(C#N)cn2)n[nH]1 [Example 104, 5-[[5-[2-methoxy-4-[[(2S)-1-methylpyrrolidin-2-yl]methoxy]phenyl]-1H-pyrazol-3-yl]amino]pyrazine-2-carbonitrile hydrochloride] |  | 100 nM | 3 nM | 0.12 nM | 214 nM |  |
| COc1cc(C2CCN(CCF)CC2)ccc1-c1cc(Nc2cnc(C#N)cn2)n[nH]1 [Example 106, 5-[[5-[4-[1-(2-fluoroethyl)-4-piperidyl]-2-methoxy-phenyl]-1H-pyrazol-3-yl]amino]pyrazine-2-carbonitrile] | 441 nM | 100 nM | 3 nM | 0.17 nM |  |  |
| COc1cc(NCC2CCN(C)CC2)ccc1-c1cc(Nc2cnc(C#N)cn2)n[nH]1 [Example 107, 5-[[5-[2-Methoxy-4-[(1-methyl-4-piperidyl)methylamino]phenyl]-1H-pyrazol-3-yl]amino]pyrazine-2-carbonitrile hydrochloride] |  | 100 nM | 3 nM | 0.081 nM | 160 nM |  |
| CCN1CCC(CNc2ccc(-c3cc(Nc4cnc(C#N)cn4)n[nH]3)c(OC)c2)CC1 [Example 108, 5-[[5-[4-[(1-ethyl-4-piperidyl)methylamino]-2-methoxy-phenyl]-1H-pyrazol-3-yl]amino]pyrazine-2-carbonitrile] | 77 nM | 30 nM | <3 nM | 0.043 nM |  |  |
| COc1cc(NCC2CCN(C(C)C)CC2)ccc1-c1cc(Nc2cnc(C#N)cn2)n[nH]1 [Example 109, 5-[[5-[4-[(1-isopropyl-4-piperidyl)methylamino]-2-methoxy-phenyl]-1H-pyrazol-3-yl]amino]pyrazine-2-carbonitrile] | 82 nM | <30 nM | <3 nM | 0.087 nM |  |  |
| COc1cc(NC2CCN(C)CC2)ccc1-c1cc(Nc2cnc(C#N)cn2)n[nH]1 [Example 110, 5-[[5-[2-methoxy-4-[(1-methyl-4-piperidyl)amino]phenyl]-1H-pyrazol-3-yl]amino]pyrazine-2-carbonitrile] | 192 nM | 100 nM | 3 nM | 0.0069 nM |  |  |
| CCN1CCC(Nc2ccc(-c3cc(Nc4cnc(C#N)cn4)n[nH]3)c(OC)c2)CC1 [Example 111, 5-[[5-[4-[(1-ethyl-4-piperidyl)amino]-2-methoxy-phenyl]-1H-pyrazol-3-yl]amino]pyrazine-2-carbonitrile] | 184 nM | 100 nM | <3 nM | 0.0052 nM |  |  |
| COc1cc(NC2CCN(C(C)C)CC2)ccc1-c1cc(Nc2cnc(C#N)cn2)n[nH]1 [Example 112, 5-[[5-[4-[(1-isopropyl-4-piperidyl)amino]-2-methoxy-phenyl]-1H-pyrazol-3-yl]amino]pyrazine-2-carbonitrile] | 253 nM | 100 nM | <3 nM | 0.0042 nM |  |  |
| COc1cc(COC2CCN(C)CC2)ccc1-c1cc(Nc2cnc(C#N)cn2)n[nH]1 [Example 113, 5-[[5-[2-methoxy-4-[(1-methyl-4-piperidyl)oxymethyl]phenyl]-1H-pyrazol-3-yl]amino]pyrazine-2-carbonitrile] |  | 300 nM | 3 nM | 0.27 nM |  | 531 nM |
